# Where “and” joins values, the source holds several entries; their conditions need not be identical. Identical values can stand only once. Like-named read-outs stand apart in the source and are kept apart here.
# What was measured:
# [1] = tested on: Ps. aeruginosa (64 strains); test: Mean % relative activity to carbenicillin from geometric mean MIC; type: cell-based; conditions: for Mean % relative activity (carbenicillin = 100%): Ps. aeruginosa, 64 strains, from geometric mean of MIC
# Protocol: (§1) Minimum inhibitory concentrations (MIC) of BB-P 652, BB-P 660 and BB-P 661 were determined by serial two-fold agar dilution method using Steer's apparatus on Mueller-Hinton agar plates against S. aureus (6 strains), cephalothinsensitive gram-negative (Gn-I, 13 strains), cephalothinresistant gram-negative (Gn-II, 6 strains) and Ps. aeruginosa (64 strains). The results are shown in Tables 1 and 2 along with piperacillin and carbenicillin.
# S. aureus (6 strains) = test: as above; type: cell-based; conditions: from geometric mean of MIC
# Protocol: as §1
# [2] = tested on: Gram-negative (Gn-II), cephalothin-resistant, 6 strains; test: as above; type: cell-based; conditions: for Mean % relative activity (carbenicillin = 100%): Gram-negative (Gn-II), 6 strains, from geometric mean of MIC
# Protocol: as §1
# [3] = tested on: Gram-negative (Gn-I), cephalothin-sensitive, 13 strains; test: as above; type: cell-based; conditions: for Mean % relative activity (carbenicillin = 100%): Gram-negative (Gn-I), 13 strains, from geometric mean of MIC
# Protocol: as §1
# E. coli Juhl [4] = test: PD50 (mice, im); type: in vivo; conditions: Escherichia coli
# P. aeruginosa = test: MIC, serial two-fold agar dilution, Mueller-Hinton agar (third P. aeruginosa line, strain not given); type: cell-based; conditions: Pseudomonas aeruginosa
# Protocol: as §1
# gram-positive bacteria = test: In vitro activity against gram-positive bacteria (summary of MIC); type: cell-based; conditions: in words
# Protocol: as §1
# [5] = Blood Level (im, 20mg/kg); type: in vivo; conditions: for half-life / Cmax: blood; for Cmax: read-out: Blood Level peak conc.
# S. aureus Smith [6] = test: MIC, serial two-fold agar dilution, Mueller-Hinton agar; type: cell-based; conditions: Staphylococcus aureus
# Protocol: as §1
# P. mirabilis A9900 = test: as above; type: cell-based; conditions: Proteus mirabilis
# Protocol: as §1
# P. aeruginosa A9843 = test: as above; type: cell-based; conditions: Pseudomonas aeruginosa
# Protocol: as §1
# P. aeruginosa A15150 = test: as above; type: cell-based; conditions: Pseudomonas aeruginosa
# Protocol: as §1
# K. pneumoniae A9977 = test: as above; type: cell-based; conditions: Klebsiella pneumoniae
# Protocol: as §1
# S. aureus BX-1633 = test: as above; type: cell-based; conditions: Staphylococcus aureus, BX1633
# Protocol: as §1
# E. cloacae A9656 = test: as above; type: cell-based; conditions: Enterobacter cloacae
# Protocol: as §1
# P. vulgaris A9539 = test: as above; type: cell-based; conditions: Proteus vulgaris
# Protocol: as §1
# E. coli Juhl [7] = test: as above; type: cell-based; conditions: Escherichia coli
# Protocol: as §1
# S. aureus Smith [8] = test: PD50 (mice, im); type: in vivo; conditions: Staphylococcus aureus
# Ps. aerug. A9843 = test: PD50 (mice, im); type: in vivo; conditions: for ED50: Mus musculus
# gram-negative bacteria = test: In vitro gram-negative activity of the isomers (summary of MIC); type: cell-based; conditions: in words
# Protocol: as §1
# Pseudomonas = test: Antipseudomonal activity of HPLC fractions; type: cell-based; conditions: fractions of preparative HPLC of crude BB-P661
# Description: The result is shown below:
# [9] = E. coli Juhl, agar dilution, Mueller-Hinton agar, read-out: MIC
# [10] = P. aeruginosa A9843, agar dilution, Mueller-Hinton agar, read-out: MIC
Structure (SMILES),Mean % relative activity (carbenicillin = 100%) [1],Mean % relative activity (carbenicillin = 100%) (S. aureus (6 strains)),Mean % relative activity (carbenicillin = 100%) [2],Mean % relative activity (carbenicillin = 100%) [3],ED50 (E. coli Juhl [4]),MIC (P. aeruginosa),"activity against gram-positive bacteria, compared with each other (gram-positive bacteria)","half-life ([5]; im, 20 mg/kg)","Cmax ([5]; im, 20 mg/kg, im)",MIC (S. aureus Smith [6]),MIC (P. mirabilis A9900),MIC (P. aeruginosa A15150),MIC (K. pneumoniae A9977),MIC (S. aureus BX-1633),MIC (E. cloacae A9656),MIC (P. vulgaris A9539),MIC (E. coli Juhl [7]; [9]),ED50 (S. aureus Smith [8]),ED50 (Ps. aerug. A9843),MIC (P. aeruginosa A9843; [10]),also measured
"CCN1CCN(C(=O)NC(C(=O)N[C@@H]2C(=O)N3[C@@H]2SC(C)(C)[C@@H]3C(=O)O)c2ccc(O)c(O)c2)C(=O)C1=O (mixture of isomers) [BB-P 652, Sodium 6-[DL-α-(4-ethyl-2,3-dioxo-1-piperazinocarboxamido)-α-3,4-dihydroxyphenylacetamido]penicillanate]",271%,25%,112%,1780%,1.8 mg/kg,6.3 µg/mL,almost as active as each other,32 min,8300 ng/mL,6.3 µg/mL,0.8 µg/mL,50 µg/mL,0.05 µg/mL,12.5 µg/mL,1.6 µg/mL,0.8 µg/mL,0.8 µg/mL,4.5 mg/kg,30 mg/kg,–,"potency against gram-positive bacteria, compared with piperacillin (gram-positive bacteria): less potent than piperacillin; Blood Level half life ([5]; im, 20 mg/kg): 39 min; Blood Level peak conc. ([5]; im, 20 mg/kg): 4500 ng/mL; MIC (P. aeruginosa A9843; A9843): 3.1 µg/mL"
"CCN1CCN(C(=O)N[C@H](C(=O)N[C@@H]2C(=O)N3[C@@H]2SC(C)(C)[C@@H]3C(=O)O)c2ccc(O)c(O)c2)C(=O)C1=O [BB-P 660, Sodium 6-[L-α-(4-ethyl-2,3-dioxo-1-piperazinocarboxamido)-α-3,4-dihydroxyphenylacetamido]penicillanate]",26%,22%,6%,200%,7.2 mg/kg,> 100 µg/mL,almost as active as each other,39 min,4000 ng/mL,6.3 µg/mL,12.5 µg/mL,> 100 µg/mL,0.8 µg/mL,12.5 µg/mL,12.5 µg/mL,> 100 µg/mL,6.3 µg/mL,7.3 mg/kg,> 100 mg/kg,> 100 µg/mL,"gram-negative activity, compared among the three isomers (gram-negative bacteria): considerably decreased activity; potency against gram-positive bacteria, compared with piperacillin (gram-positive bacteria): less potent than piperacillin"
"CCN1CCN(C(=O)N[C@@H](C(=O)N[C@@H]2C(=O)N3[C@@H]2SC(C)(C)[C@@H]3C(=O)O)c2ccc(O)c(O)c2)C(=O)C1=O [BB-P 661, Sodium 6-[D-α-(4-ethyl-2,3-dioxo-1-piperazinocarboxamido)-α-(3,4-dihydroxyphenyl)acetamido]penicillinate]",418%,22%,178%,3030%,1.8 mg/kg,0.8 µg/mL,almost as active as each other,28 min,4000 ng/mL,6.3 µg/mL,0.4 µg/mL,12.5 µg/mL,0.025 µg/mL,12.5 µg/mL,1.6 µg/mL,0.4 µg/mL,0.4 µg/mL,6.25 mg/kg,25 mg/kg,0.8 µg/mL,"activity compared with piperacillin against Pseudomonas ([1]; in words): slightly less active; activity compared with piperacillin against cephalothin-resistant strains ([2]; in words): slightly less active; times more active than piperacillin against cephalothin-sensitive gram-negative organisms ([3]; versus piperacillin): about 8 times; gram-negative activity, compared among the three isomers (gram-negative bacteria): the most active of the three isomers; potency against gram-positive bacteria, compared with piperacillin (gram-positive bacteria): less potent than piperacillin; antipseudomonal activity (Pseudomonas): exhibited antipseudomonal activity"
"CC1(C)S[C@@H]2[C@H](NC(=O)C(C(=O)O)c3ccccc3)C(=O)N2[C@H]1C(=O)O (some centres unmarked) [carbenicillin, reference compound]",–,–,–,–,–,> 100 µg/mL,–,–,–,0.2 µg/mL,0.8 µg/mL,25 µg/mL,1.6 µg/mL,3.1 µg/mL,1.6 µg/mL,1.6 µg/mL,3.1 µg/mL,–,–,100 µg/mL,–
"CCN1CCN(C(=O)N[C@@H](C(=O)N[C@@H]2C(=O)N3[C@@H]2SC(C)(C)[C@@H]3C(=O)O)c2ccccc2)C(=O)C1=O [piperacillin, reference compound]",637%,56%,224%,360%,3.3 mg/kg,25 µg/mL,–,29 min,4900 ng/mL,0.8 µg/mL,0.8 µg/mL,3.1 µg/mL,0.8 µg/mL,3.1 µg/mL,1.6 µg/mL,0.4 µg/mL,–,0.8 mg/kg,45 mg/kg,6.3 µg/mL,"half-life ([5]; sc, 20 mg/kg, route: sc (footnote 2)): 44 min; Blood Level peak conc. ([5]; im, listed as B-P 606, 20 mg/kg): 6200 ng/mL and 9000 ng/mL; Blood Level half life ([5]; route: sc (footnote 2), listed as B-P 606, 20 mg/kg): 30 min; MIC (E. coli Juhl [7]): 1.6 µg/mL; PD50 (Ps. aerug. A9843; listed as B-P 606): 35 mg/kg and 25 mg/kg and 40 mg/kg"

# From US4206116A, “Novel penicillins” (Bristol-Myers Company, priority 1978, dated 1980)
